Test results published in ChEMBL document CHEMBL1201862, “PubChem BioAssay data set” (2004).
The source made the active and inactive calls.

What was measured:
Cytochrome P450 2C19 = Cytochrome P450 2C19 (Homo sapiens, UniProt P33261); experiment: Cytochrome panel assay with activity outcomes. Panel member name: p450-cyp2c19 Compounds with AC50 equal or less than 10 uM are considered active; type: functional
Cytochrome P450 1A2 = molecular target: T1, Cytochrome P450 1A2 (Homo sapiens, UniProt P05177);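 further: PubChem cytochrome P450 panel assay, CYP1A2 panel member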
T1 sequence (P05177 whole entry): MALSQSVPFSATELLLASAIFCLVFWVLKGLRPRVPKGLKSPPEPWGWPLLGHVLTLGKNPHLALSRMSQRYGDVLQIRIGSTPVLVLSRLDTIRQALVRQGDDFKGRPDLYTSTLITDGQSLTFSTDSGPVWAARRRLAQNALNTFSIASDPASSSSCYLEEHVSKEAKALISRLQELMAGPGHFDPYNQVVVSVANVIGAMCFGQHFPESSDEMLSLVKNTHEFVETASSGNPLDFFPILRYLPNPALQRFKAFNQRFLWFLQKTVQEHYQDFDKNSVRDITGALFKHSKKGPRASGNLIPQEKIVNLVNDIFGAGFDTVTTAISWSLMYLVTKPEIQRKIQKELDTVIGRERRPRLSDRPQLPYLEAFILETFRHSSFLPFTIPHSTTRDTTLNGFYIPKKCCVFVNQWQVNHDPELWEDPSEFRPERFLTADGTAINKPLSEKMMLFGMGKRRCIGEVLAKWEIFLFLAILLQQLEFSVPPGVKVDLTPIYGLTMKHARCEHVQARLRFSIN

Cytochrome P450 3A4 = Cytochrome P450 3A4 (Homo sapiens, UniProt P08684);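 further: CYP3A4 tested as one member of a cytochrome P450 panel screen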
Cytochrome P450 2C9 = Cytochrome P450 2C9 (Homo sapiens, UniProt P11712)
[1] = NIH3T3 cell viability loss – ATP luminescence, mouse fibroblasts, counter-screen, dose response (AID 2010); type: functional, cell-based;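 further: cells exposed to compound for about 90 hours before reading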
[2] = Trypanosoma cruzi growth suppression in host cells – NIH3T3 host cells, beta-gal luminescence, confirmation (AID 2044); type: functional, cell-based;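 further: intracellular parasites grown in NIH/3T3 mouse fibroblasts as host cells; luminescent beta-galactosidase reporter signal from transgenic T. cruzi replicating inside host cells; inhibitors lower the luminescence signal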

Sequence of Cytochrome P450 2C19 (P33261 whole entry): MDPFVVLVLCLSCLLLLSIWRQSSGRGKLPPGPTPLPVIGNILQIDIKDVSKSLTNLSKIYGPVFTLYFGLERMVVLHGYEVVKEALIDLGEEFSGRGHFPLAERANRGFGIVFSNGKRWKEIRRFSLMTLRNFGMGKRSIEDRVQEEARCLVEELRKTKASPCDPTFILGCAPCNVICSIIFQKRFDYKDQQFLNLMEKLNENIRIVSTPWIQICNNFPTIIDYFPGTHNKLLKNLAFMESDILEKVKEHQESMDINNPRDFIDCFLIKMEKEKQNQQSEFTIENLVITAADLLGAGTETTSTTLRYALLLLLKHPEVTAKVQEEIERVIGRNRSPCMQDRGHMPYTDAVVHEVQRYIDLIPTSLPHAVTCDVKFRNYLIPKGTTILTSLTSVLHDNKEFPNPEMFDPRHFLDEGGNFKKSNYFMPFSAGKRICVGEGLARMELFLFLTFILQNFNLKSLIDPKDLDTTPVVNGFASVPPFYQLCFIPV
Sequence of Cytochrome P450 3A4 (P08684 whole entry): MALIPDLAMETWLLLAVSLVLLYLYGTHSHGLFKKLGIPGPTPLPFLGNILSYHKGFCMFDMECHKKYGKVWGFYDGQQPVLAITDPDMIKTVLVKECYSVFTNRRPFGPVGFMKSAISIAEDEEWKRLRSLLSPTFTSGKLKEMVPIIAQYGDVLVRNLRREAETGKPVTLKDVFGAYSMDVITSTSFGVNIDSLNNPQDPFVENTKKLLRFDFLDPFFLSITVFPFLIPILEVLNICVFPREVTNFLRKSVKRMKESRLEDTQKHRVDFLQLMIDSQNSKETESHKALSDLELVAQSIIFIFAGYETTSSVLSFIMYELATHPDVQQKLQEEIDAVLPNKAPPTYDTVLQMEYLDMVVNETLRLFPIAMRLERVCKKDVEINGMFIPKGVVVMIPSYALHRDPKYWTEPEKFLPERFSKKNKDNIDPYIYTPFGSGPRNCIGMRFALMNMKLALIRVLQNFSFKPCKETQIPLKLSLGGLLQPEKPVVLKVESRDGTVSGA
Sequence of Cytochrome P450 2C9 (P11712 whole entry): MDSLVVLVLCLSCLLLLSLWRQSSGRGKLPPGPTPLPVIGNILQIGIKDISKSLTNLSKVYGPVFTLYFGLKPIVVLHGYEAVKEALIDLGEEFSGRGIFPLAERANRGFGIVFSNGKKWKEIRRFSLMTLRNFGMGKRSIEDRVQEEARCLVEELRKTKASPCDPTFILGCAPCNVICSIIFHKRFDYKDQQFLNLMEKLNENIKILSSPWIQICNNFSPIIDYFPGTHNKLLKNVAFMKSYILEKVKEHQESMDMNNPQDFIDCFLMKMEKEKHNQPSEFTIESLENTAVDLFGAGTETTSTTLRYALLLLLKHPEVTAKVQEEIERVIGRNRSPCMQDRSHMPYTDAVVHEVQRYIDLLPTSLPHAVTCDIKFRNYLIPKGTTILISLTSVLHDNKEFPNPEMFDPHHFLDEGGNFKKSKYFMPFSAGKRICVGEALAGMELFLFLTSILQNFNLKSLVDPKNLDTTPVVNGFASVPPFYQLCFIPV

With `CO[C@@H]1COC(=O)[C@@H](CCSC)NC(=O)C/C=C\[C@@H](C)COC(=O)[C@H](C)NC(=O)C/C=C\[C@H]1C` as the molecule, how does the AC50 (Cytochrome P450 2C19) read?
The AC50 was “inconclusive”.

For `C[C@@H](C(=O)NCCc1c[nH]c2ccccc12)[C@H]1C[C@]1(C)[C@H](NC(=O)OCc1ccccc1)c1ccccc1`, which AC50 (Cytochrome P450 1A2) is on record?
Its AC50 is 15.8 µM (inconclusive).

For `COc1ccc(-n2c(=O)c(-c3ccc(F)c(F)c3)nc3cncnc32)cc1`, which AC50 (Cytochrome P450 3A4) is on record?
Its AC50 is 12.6 µM (inconclusive).

What about the AC50 (Cytochrome P450 1A2) of the same molecule?
The AC50 was 2.51 µM (inconclusive).

Which AC50 (Cytochrome P450 2C19; read-out: AC50) does the source give for `Cc1cccc(-c2noc(-c3cc4ccccc4oc3=O)n2)c1` here?
The AC50 was 0.562 µM (inconclusive).

With `COc1ncc2nc(-c3ccc(Cl)cc3)c(=O)n(C[C@H]3CCCO3)c2n1` as the molecule, how does the AC50 (Cytochrome P450 2C9) read?
The AC50 was 25.1 µM (inconclusive).

Which results are given for `COc1cccc(N2C(C(C)=O)=NN(c3ccccc3)C2c2ccc(N3CCOCC3)cc2)c1` (stereo not given)?
EC50 [1]: > 30 µM (not active); EC50 [2]: 1.49 µM (active)

For `CCOc1c(OC(C)=O)ccc(/C=C2\N=C(SCC)SC2=O)c1[N+](=O)[O-]`, which AC50 (Cytochrome P450 3A4) is on record?
Its AC50 is 39.8 µM (inconclusive).

For `COc1cc(OC)nc(NC(C)=O)n1`, which AC50 (Cytochrome P450 1A2) is on record?
Its AC50 is 28.2 µM (inconclusive).

With `Cc1ccc2ccccc2c1CSc1nc(N)nc2c1ncn2CC(C)C` as the molecule, how does the AC50 (Cytochrome P450 2C9) read?
Its AC50 is 7.94 µM (inconclusive).

Which AC50 (Cytochrome P450 3A4) does the source give for `Cc1nnc(O)nc1NCc1ccccc1Cl` here?
The AC50 was 39.8 µM (inconclusive).

Which AC50 (Cytochrome P450 2C9) does the source give for `Clc1ccc(SCc2cc(-c3ccccc3)no2)cc1` here?
Its AC50 is 4.47 µM (inconclusive).

For `Cc1ccccc1NC(=S)NC(=O)c1cc(-c2ccccc2)nc2ccccc12`, which AC50 (Cytochrome P450 3A4) is on record?
Its AC50 is 3.16 µM (inconclusive).

Which EC50 [1] does the source give for `Cc1ccc(C)c(Oc2ccc(S(=O)(=O)N3CCN(C)CC3)cn2)c1` here?
Its EC50 is > 60 µM (not active).

What about the EC50 [2] of the same molecule?
The EC50 was 1.14 µM (active).

Which AC50 (Cytochrome P450 2C19; read-out: AC50) does the source give for `COCCNc1ccnc(-c2ccccc2C)n1` here?
The AC50 was 15.8 µM (inconclusive).

For `CCCC[C@]1(C2CCCC2)Cc2cc(OCC(=O)O)c(Cl)c(Cl)c2C1=O`, which AC50 (Cytochrome P450 3A4) is on record?
Its AC50 is 10 µM (inconclusive).

With `CC(C)c1ccccc1[S+]([O-])c1ccccc1C(C)(C)O` (stereo not given) as the molecule, how does the AC50 (Cytochrome P450 3A4) read?
Its AC50 is 3.98 µM (inconclusive).

What about the AC50 (Cytochrome P450 2C19; read-out: AC50) of the same molecule?
Its AC50 is 3.16 µM (inconclusive).

For `COC(=O)C1=CN(c2cc(C)cc(C)c2)C=C(C(=O)OC)C1c1cccc(F)c1`, which EC50 [1] is on record?
Its EC50 is > 60 µM (not active).

What about the EC50 [2] of the same molecule?
The EC50 was 3.09 µM (active).

With `CCOC(=O)c1c(NC(=O)COC(=O)c2ccccc2NC)sc(C(=O)N(C)C)c1C` as the molecule, how does the EC50 [1] read?
Its EC50 is > 60 µM (not active).

What about the EC50 [2] of the same molecule?
The EC50 was 0.75 µM (active).

What does the source list for `CCOC(=O)c1ccc(Nc2nc(C(=O)OCC)nc3ccccc23)cc1`?
AC50 (Cytochrome P450 3A4): 35.5 µM (inconclusive); AC50 (Cytochrome P450 2C9): 3.55 µM (inconclusive)

Which AC50 (Cytochrome P450 1A2) does the source give for `COC(=O)[C@@]1(Cc2ccc(F)cc2)[C@H]2c3cc(C(=O)N(C)C)n(Cc4ccc(S(C)(=O)=O)cc4)c3C[C@H]2CN1C(=O)c1ccccc1` here?
Its AC50 is 25.1 µM (inconclusive).

What about the AC50 (Cytochrome P450 2C9) of the same molecule?
The AC50 was 15.8 µM (inconclusive).

Which AC50 (Cytochrome P450 1A2) does the source give for `COc1ccc(C(=O)NCS(=O)(=O)c2ccc(C)cc2)cc1` here?
The AC50 was 15.8 µM (inconclusive).

Which results are given for `O=C(Nc1ccc(F)cc1)NC1CCN(Cc2ccccc2)CC1`?
EC50 [1]: > 60 µM (not active); EC50 [2]: 0.476 µM (active)

With `COCCNC(=O)/C(C#N)=C/c1ccc(-c2ccc(OC)cc2[N+](=O)[O-])o1` as the molecule, how does the AC50 (Cytochrome P450 3A4) read?
The AC50 was 3.16 µM (inconclusive).

And the AC50 (Cytochrome P450 1A2)?
The AC50 was 2 µM (inconclusive).

And the AC50 (Cytochrome P450 2C9)?
The AC50 was 39.8 µM (inconclusive).

And the AC50 (Cytochrome P450 2C19; read-out: AC50)?
The AC50 was 3.55 µM (inconclusive).

Which AC50 (Cytochrome P450 3A4) does the source give for `COC(=O)[C@@H]1CC[C@H](C)[C@@H](c2ccc(C)cc2)N1C(=O)c1ccc(/C=N\OC[C@@H](O)[C@H]2O[C@H]3OC(C)(C)O[C@H]3[C@@H]2O)cc1` here?
Its AC50 is 6.31 µM (inconclusive).

For `CCN1CCN(c2nc(-c3ccccn3)nc3ccccc23)CC1`, which AC50 (Cytochrome P450 2C19; read-out: AC50) is on record?
Its AC50 is 39.8 µM (inconclusive).

With `Cc1noc(NC(=O)Nc2ccccc2F)c1C#N` as the molecule, how does the AC50 (Cytochrome P450 1A2) read?
Its AC50 is 0.794 µM (inconclusive).

What does the source list for `O=C(c1cc(COc2ccc(F)cc2Cl)on1)N(Cc1ccncc1)CC1CCCO1` (stereo not given)?
EC50 [1]: > 60 µM (not active); EC50 [2]: 0.956 µM (active)

For `Cn1c(=O)c2c(nc(N/N=C\c3ccccc3C(=O)O)n2C)n(C)c1=O`, which AC50 (Cytochrome P450 2C19) is on record?
The AC50 was “inconclusive”.

What does the source list for `CCCC1(C(=O)OC)C=C2C(=C(C(C)C)C(=O)C2C)CN1` (stereo not given)?
AC50 (Cytochrome P450 3A4): 12.6 µM (inconclusive); AC50 (Cytochrome P450 2C9): 20 µM (inconclusive)

Which EC50 [1] does the source give for `CCCC(C)C(=O)Nc1ncc(S(=O)(=O)c2ccc([N+](=O)[O-])cc2)s1` (stereo not given) here?
The EC50 was > 60 µM (not active).

And the EC50 [2]?
Its EC50 is 2.25 µM (active).
